Series [1] has as its target CYP3A4 (Homo sapiens (Human), UniProt P08684). The series can be described thus: Inhibitory effect on CYP3A4 (Luciferin-IPA). To be noted: read-out: IC50 (CYP3A4 inhibition); 30-minute pre-incubation group.
Experimental: Enzyme reaction was performed by incubating in a potassium phosphate buffer solution (pH 7.4) containing 1 nM to 20 μM test compound, 3.2 mM magnesium chloride, 0.2 pmol human CYP3A4 (BD Biosciences), 0.5 mM reduced nicotinamide adenine dinucleotide phosphate (NADPH) and 3 μM Luciferin-IPA (Promega) at 37° C. for 10 minutes. The volume of the reaction solution was 50 μL/well. The 30-minute pre-incubation group was incubated at 37° C. for 30 minutes before adding the substrate, the Luciferin-IPA solution (12.5 μL/well). At the end of the enzyme reaction, 50 μL/well of a Luciferin detection reagent (Promega) was added to the wells, and the plate was left at room temperature for 20 minutes. Then, the emission intensities were measured with Infinite M1000 (TECAN). The enzyme activities (%) relative to the value of the group to which the test compound was not added were calculated.
The target of series [2] is human NK1 receptor (Homo sapiens (Human), UniProt P25103). The series can be described thus: Inhibitory effect on human NK1 receptor (substance P-induced increase in intracellular calcium concentration). The class given is cell-based. To be noted: HEK-293T; substance P 1 μM, compound 0.1 μM; human NK1 receptor-expressing 293T cells; read-out: SPRR (Substance P-Response Remaining). The protocol:
Inhibitory Effect on Human NK1 Receptor
(1) Preparation of Human NK1 Receptor-expressing Cells
Human NK1 receptor-expressing cells were prepared by the same methods as those described in 2-3 and 2-4 of Test Example 1.
(2) Study on Inhibitory Effect on Increase in Intracellular Calcium Concentration
The human NK1 receptor-expressing cells were washed with 300 μL/well of a washing solution (20 mM HEPES/Hank's Balanced Salt Solution (HBSS) […]). A fluorescent calcium indicator (Fluo-4 Direct Calcium Assay Kit, Life Technologies, containing 0.42 mM probenecid and 0.1% bovine serum albumin, prepared according to the protocol of the product) was added to the wells at 150 μL/well, and the plate was incubated at 37° C. for 30 minutes in an incubator. Then, DMSO solutions of a test compound, which were prepared at an 80-time higher concentration using 100% dimethyl sulfoxide (DMSO), were added to the wells at 2.5 μL/well (final concentrations of 0.1, 1 and 10 μM), and the solutions were mixed. Then, the plate was further incubated at 37° C. for 30 minutes in an incubator. After 30 minutes, the intracellular calcium concentrations were measured immediately.
The intracellular calcium concentrations were each measured as a fluorescent signal using FDSS (registered trademark) 7000 (Hamamatsu Photonics). A substance P (Peptide Institute, Inc.) solution which was prepared at 0.4 μM or 4 μM using an assay buffer (20 mM HEPES/Hank's Balanced Salt Solution (HBSS) pH 7.3, containing 0.1% bovine serum albumin) was added automatically to each well at 50 μL/well (final concentration of 0.1 or 1 μM) 10 seconds after starting reading, and the fluorescent signal was measured up to 120 seconds.
The intracellular calcium concentration (%) of the cells to which a test compound was added was calculated by the equation below, where the fluorescent signal of the group to which the vehicle (DMSO) was added was regarded as 100%, and the fluorescent signal before the addition of substance P was regarded as 0%. Intracellular calcium concentration(%)=(Fluorescent signal of test compound addition group)/(Fluorescent signal of vehicle addition group)×100
The intracellular calcium concentration (%) calculated was regarded as the remaining agonist activity of substance P (Substance P-Response Remaining: SPRR). In the table, Ex. No. means the Example number. SPRR (%) is the value obtained when the concentration of substance P was 1 μM and the concentration of the compound was 0.1 μM.

Series [3] has as its target NK1 receptor (Meriones unguiculatus (Mongolian jird) (Gerbillus unguiculatus), UniProt Q5DUB1). The series can be described thus: Effect on GR73632-induced foot-tapping. It is filed as in vivo. The conditions noted are these: 0.3 mg/kg from the jugular vein, GR73632 after four hours, male gerbil. The protocol:
(1) Effect on Foot-tapping
(§1) A male gerbil (Japan SLC) was anesthetized with isoflurane, and 0.3 mg/kg of a test compound was administered from the jugular vein. After four hours, GR73632 (5 pmol/5 μl), which is an NK1 receptor agonist, was administered into the cerebral ventricle at the part 1 mm lateral to and 4.5 mm below the bregma in the head, under anesthesia with isoflurane. After the administration, the gerbil was moved to an observation cage, and the foot-tapping period during five minutes after the recovery of the righting reflex was measured. The foot-tapping inhibition rate (%) of each test compound was calculated by the following equation. Foot-tapping inhibition rate (%)={1−(Foot-tapping period when test compound was administered)/(Foot-tapping period when solvent was administered)}×100 (2) Measurement of Drug Concentrations
(§2) In the table, Ex. No. means the Example number. Inhibition (%) is the foot-tapping inhibition rate, and Conc. (nM) is the drug concentration in the brain.

A short description of series [4]: Measurement of drug concentrations in the brain after foot-tapping test. The class given is in vivo. To be noted: male; 0.3 mg/kg iv, after foot-tapping was finished, gerbil brain; read-out: Conc. (drug concentration in the brain). The protocol:
as §1
After foot-tapping was finished, laparotomy was performed immediately under anesthesia with ether, and a blood sample was taken from the abdominal vena cava. At the same time, the brain was extracted. Through a quantitative analysis using liquid chromatography-mass spectrometry (LC/MS), the concentrations of the test compound in the plasma and the brain were measured.
as §2

A short description of series [5]: Ferret pharmacokinetic test. The class given is in vivo. To be noted: plasma, male ferret. The protocol: Ferret Pharmacokinetic Test
The test compound solution was prepared by dissolving the test compound in a vehicle (50% N,N-dimethylformamide (Wako Pure Chemical Industries), 30% propylene glycol (Wako Pure Chemical Industries) and 4% 2-hydroxypropyl-β-cyclodextrin (Wako Pure Chemical Industries)). Under anesthesia with isoflurane 0.3 mg/kg of the test compound was intravenously administered to a male ferret (Marshall BioResources Japan) from the jugular vein. In the case of oral administration, 1 mg/kg of the test compound was orally administered to an awake animal. After the administration of the test compound, blood samples were taken sequentially from the brachial cephalic vein, and the concentrations of the test compound in the plasma were measured by a quantitative analysis using liquid chromatography-mass spectrometry (LC/MS).
In the tables, Ex. No. means the Example number. CLtot and Vss are the total body clearance and the steady-state volume of distribution, based on the plasma concentrations in the case of intravenous administration, respectively, Cmax, AUC and BA are the maximum plasma test compound concentration, the area under the plasma test compound concentration-time curve and the bioavailability, in the case of oral administration, respectively, […]

For orientation: IC50 means the concentration needed to halve the response being measured. In general, clearance refers to the volume of plasma or blood freed of the substance per unit of time. The term bioavailability denotes dose-corrected exposure relative to a reference, in per cent.

The structures appear in SMILES notation.

NK1 receptor, sequence (Q5DUB1 whole entry): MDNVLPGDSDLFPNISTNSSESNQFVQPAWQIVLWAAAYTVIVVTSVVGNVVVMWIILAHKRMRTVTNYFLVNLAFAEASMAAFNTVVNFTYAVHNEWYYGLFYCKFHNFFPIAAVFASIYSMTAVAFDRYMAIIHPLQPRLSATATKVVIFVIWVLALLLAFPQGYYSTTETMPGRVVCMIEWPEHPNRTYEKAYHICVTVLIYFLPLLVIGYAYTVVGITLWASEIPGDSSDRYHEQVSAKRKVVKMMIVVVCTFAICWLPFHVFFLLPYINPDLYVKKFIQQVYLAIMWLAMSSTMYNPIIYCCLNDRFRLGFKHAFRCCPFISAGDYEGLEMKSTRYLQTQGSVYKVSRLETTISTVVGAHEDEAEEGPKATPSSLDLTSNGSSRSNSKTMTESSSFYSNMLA
CYP3A4, sequence (P08684 whole entry): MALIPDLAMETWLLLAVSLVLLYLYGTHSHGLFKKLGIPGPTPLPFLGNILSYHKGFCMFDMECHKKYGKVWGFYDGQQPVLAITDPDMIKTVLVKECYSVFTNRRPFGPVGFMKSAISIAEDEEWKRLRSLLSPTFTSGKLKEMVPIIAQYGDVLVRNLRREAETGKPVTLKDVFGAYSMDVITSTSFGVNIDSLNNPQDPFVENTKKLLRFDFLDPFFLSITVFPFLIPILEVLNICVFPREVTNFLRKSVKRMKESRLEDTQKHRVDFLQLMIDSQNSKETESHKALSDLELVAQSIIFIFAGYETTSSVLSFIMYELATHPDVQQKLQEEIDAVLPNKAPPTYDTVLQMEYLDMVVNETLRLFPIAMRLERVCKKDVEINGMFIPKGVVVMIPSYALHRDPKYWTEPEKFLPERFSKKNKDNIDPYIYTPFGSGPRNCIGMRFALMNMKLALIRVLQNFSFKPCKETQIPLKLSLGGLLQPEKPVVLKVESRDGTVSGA
human NK1 receptor, sequence (P25103 whole entry): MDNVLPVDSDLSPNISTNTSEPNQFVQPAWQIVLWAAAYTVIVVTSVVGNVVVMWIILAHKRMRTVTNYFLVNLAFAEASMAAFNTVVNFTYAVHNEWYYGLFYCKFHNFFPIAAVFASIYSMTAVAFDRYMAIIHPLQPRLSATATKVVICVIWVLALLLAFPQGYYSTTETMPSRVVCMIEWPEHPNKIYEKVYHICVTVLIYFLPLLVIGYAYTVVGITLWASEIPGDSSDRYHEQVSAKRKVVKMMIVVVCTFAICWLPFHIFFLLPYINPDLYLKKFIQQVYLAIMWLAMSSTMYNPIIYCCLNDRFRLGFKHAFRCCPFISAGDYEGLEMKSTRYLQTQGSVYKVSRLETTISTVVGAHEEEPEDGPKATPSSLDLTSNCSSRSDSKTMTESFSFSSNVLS

Consider `Cc1cc(F)ccc1-c1cc(N2CCC(CC(=O)O)CC2)ncc1N(C)C(=O)C(C)(C)c1cc(C(F)(F)F)cc(C(F)(F)F)c1` [Example 1], for which the half-inhibitory concentration (IC50) in series [1] came to 6.2 µM. Further, the remaining activity at 0.1 µM in series [2] amounted to 28%. The “Inhibition (foot-tapping inhibition rate)” value in series [3] is 100%. Further, in series [4], the concentration at 4 h came out at 275 nM. In series [5] (0.3 mg/kg intravenous, read-out: CLtot (total body clearance)), the clearance was 0.75 mL/min/kg. Further, the Vd in series [5] (0.3 mg/kg intravenous, read-out: Vss (steady-state volume of distribution)) is 0.336 L/kg. Further, the bioavailability in series [5] (1 mg/kg oral, read-out: BA (bioavailability)) turned out to be 61%. Further, the Cmax in series [5] (1 mg/kg oral, read-out: Cmax (maximum plasma test compound concentration)) was 1270 ng/mL.

(Values after patent publication US10100030B2 (Kissei Pharmaceutical Co., Ltd., priority 2013, dated 2018).)
